# Legend:
# [1] = tested on: Desulfovibrio desulfuricans G100A; test: microbe, parasite or virus in culture; type: cell-based; conditions: Desulfovibrio desulfuricans, G100A, read-out: % Inhib. (inhibition of sulfide production)
# D. desulfuricans Norway = test: Growth of different sulfate-reducers with 1,8-dihydroxyanthraquinone (Example 7); type: cell-based; conditions: 3 ppm, 40 hours; control .30
# Procedure: (§1) Growth was monitored as optical density at 660 nm for 40 hours.
# [2] = tested on: D. desulfuricans #ATCC27774; test: Respiration rate (hydrogen gas uptake) with sulfate as electron acceptor; conditions: Desulfovibrio desulfuricans, ATCC27774, 4 h, pH 7, read-out: Gas Uptake (as percent of control)
# [3] = tested on: Escherichia coli strain MC106; test: Aerobic and anaerobic growth of Escherichia coli; type: cell-based; conditions: 5 ppm
# Procedure: Another non-sulfate reducing organism, Escherichia coli strain MC106 was grown under aerobic conditions on BTZ-3 with 30 mM sodium succinate as sole carbon and electron source with oxygen as electron acceptor or under anaerobic conditions with hydrogen (80% as electron donor) and carbon dioxide (20%) as gas phase and sodium fumarate (30 mM) as electron acceptor. Both media contained 0.2% yeast extract.
# Aerobic growth with succinate refers to growth on succinate as a carbon and electron source and oxygen as an electron acceptor. Anaerobic growth under hydrogen/carbon dioxide refers to growth with hydrogen as an electron donor and fumarate as an electron acceptor.
# D. desulfuricans G100A = test: Effect of dithionite-reduced anthraquinones on growth of D. desulfuricans G100A; type: cell-based
# Procedure: Three anthraquinones, 1,8-dihydroxy-, 1-chloro-, and 3-chloro-2-carboxy- were prepared as 1 ml of 1000 ppm solutions in acetone for the first two compounds or water for the third. These solutions were then treated with 1 mg of the strong reducing agent, sodium dithionite. 50 ul of each solution (for a final culture concentration of 5 ppm) was used immediately to treat growing cultures of D. desulfuricans G100A in BTZ-3 medium as defined in Example 1. The compounds were added to the 10 ml cultures at 15 h of growth.
# D. vulgaris = test: Growth of different sulfate-reducers with 1,8-dihydroxyanthraquinone (Example 10); type: cell-based; conditions: 3 ppm, 40 hours; control .20
# Procedure: as §1
# [4] = tested on: B. aureus, B. subtilis, B. stearothermophilus and S. aureus; conditions: background art; cited from earlier work
# [5] = tested on: D. desulfuricans #ATCC27774; test: Rate of hydrogen utilization in the presence of different electron acceptors; type: cell-based
# From the text: The following experiments show the effect of the 1,8-dihydroxy-anthraquinone on the rate of hydrogen utilization by bacteria in the presence of different electron acceptors.
# D. salexigens = test: Growth of different sulfate-reducers with 1,8-dihydroxyanthraquinone (Example 8); type: cell-based; conditions: 3 ppm, 40 hours; control >1.5
# Procedure: as §1
# [6] = tested on: Thiobacillus denitrificans; test: Growth of Thiobacillus denitrificans; type: cell-based
# Procedure: Thiobacillus denitrificans was grown on BTZ-3 medium as defined in Example 1 (supplemented with reducing agent) and with 30 mM sodium nitrate plus 30 mM sodium thiosulfate. Cultures were anaerobic under a nitrogen atmosphere. Thus growth conditions mimicked those for the sulfate-reducingbacteria as closely as possible. […]
# D. multispirans = test: Growth of different sulfate-reducers with 1,8-dihydroxyanthraquinone (Example 5); type: cell-based; conditions: 3 ppm, 40 hours; control >1.5
# Procedure: as §1
smiles,measurement,setting,value
"O=C1c2cccc(O)c2C(=O)c2c(O)cccc21 [1,8-Dihydroxyanthraquinone]",inhibition at 10 ppm,[1],82.2%
same,"Optical Density @ 660 nm, treated",D. desulfuricans Norway,.09
same,activity at 0.6 ppm,[2],66%
same,activity at 1.5 ppm,[2],45%
same,activity at 3 ppm,[2],30%
same,inhibition of aerobic or anaerobic growth (in words),[3],virtually no inhibition
same,Optical Density @ 660 nm,"[3]; aerobic growth with succinate, 0 h, control 0.01",0.01
same,Optical Density @ 660 nm,"[3]; aerobic growth with succinate, 5.5 h, control 0.17",0.24
same,Optical Density @ 660 nm,"[3]; aerobic growth with succinate, 6.5 h, control 0.37",0.39
same,Optical Density @ 660 nm,"[3]; aerobic growth with succinate, 7.5 h, control 0.38",0.40
same,Optical Density @ 660 nm,"[3]; aerobic growth with succinate, 24 h, control 1.50",1.50
same,Optical Density @ 660 nm,"[3]; anaerobic growth under hydrogen/carbon dioxide, 0 h, control 0.0",0.01
same,Optical Density @ 660 nm,"[3]; anaerobic growth under hydrogen/carbon dioxide, 3.5 h, control 0.30",0.29
same,Optical Density @ 660 nm,"[3]; anaerobic growth under hydrogen/carbon dioxide, 4.5 h, control 0.45",0.62
same,Optical Density @ 660 nm,"[3]; anaerobic growth under hydrogen/carbon dioxide, 5.5 h, control 0.61",0.79
same,Optical Density @ 660 nm,"[3]; anaerobic growth under hydrogen/carbon dioxide, 6.0 h, control 0.75",0.87
same,Optical Density @ 660 nm,"D. desulfuricans G100A; 0 h, before addition of 5 ppm dithionite-reduced compound at 15 h, control 0.02",0.02
same,Optical Density @ 660 nm,"D. desulfuricans G100A; 2 h, before addition of 5 ppm dithionite-reduced compound at 15 h, control 0.02",0.02
same,Optical Density @ 660 nm,"D. desulfuricans G100A; 12 h, before addition of 5 ppm dithionite-reduced compound at 15 h, control 0.08",0.10
same,Optical Density @ 660 nm,"D. desulfuricans G100A; 15 h, time of addition of 5 ppm dithionite-reduced compound, control 0.18",0.2
same,Optical Density @ 660 nm,"D. desulfuricans G100A; 17 h, 5 ppm dithionite-reduced compound added at 15 h, control 0.26",0.24
same,Optical Density @ 660 nm,"D. desulfuricans G100A; 20 h, 5 ppm dithionite-reduced compound added at 15 h, control 0.37",0.23
same,Optical Density @ 660 nm,"D. desulfuricans G100A; 25 h, 5 ppm dithionite-reduced compound added at 15 h, control 0.50",0.22
same,Optical Density @ 660 nm,"D. desulfuricans G100A; 30 h, 5 ppm dithionite-reduced compound added at 15 h, control 0.98",0.23
same,Optical Density @ 660 nm,"D. desulfuricans G100A; 45 h, 5 ppm dithionite-reduced compound added at 15 h, control 1.50",0.25
same,"Optical Density @ 660 nm, treated",D. vulgaris,.05
same,antibacterial activity (in words),[4],inactive
same,Hydrogen,"[5]; Fumarate as electron acceptor, 3 ppm, 0 min, control 0",0 µL
same,Hydrogen,"[5]; Fumarate as electron acceptor, 3 ppm, 10 min, control 9",8 µL
same,Hydrogen,"[5]; Fumarate as electron acceptor, 3 ppm, 25 min, control 23",25 µL
same,Hydrogen,"[5]; Fumarate as electron acceptor, 3 ppm, 40 min, control 47",48 µL
same,Hydrogen,"[5]; Fumarate as electron acceptor, 3 ppm, 55 min, control 70",74 µL
same,Hydrogen,"[5]; Fumarate as electron acceptor, 3 ppm, 70 min, control 95",101 µL
same,Hydrogen,"[5]; Sulfate as electron acceptor, 3 ppm, 0 min, control 0",0 µL
same,Hydrogen,"[5]; Sulfate as electron acceptor, 3 ppm, 10 min, control 15",3 µL
same,Hydrogen,"[5]; Sulfate as electron acceptor, 3 ppm, 25 min, control 44",14 µL
same,Hydrogen,"[5]; Sulfate as electron acceptor, 3 ppm, 40 min, control 76",21 µL
same,Hydrogen,"[5]; Sulfate as electron acceptor, 3 ppm, 55 min, control 107",28 µL
same,Hydrogen,"[5]; Sulfate as electron acceptor, 3 ppm, 70 min, control 152",38 µL
same,Hydrogen,"[5]; Sulfate as electron acceptor, 3 ppm, 85 min, control 208",45 µL
same,Hydrogen,"[5]; Sulfate as electron acceptor, 3 ppm, 100 min, control 266",56 µL
same,Hydrogen,"[5]; Sulfate as electron acceptor, 3 ppm, 115 min, control 336",74 µL
same,Hydrogen,"[5]; Sulfite as electron acceptor, 3 ppm, 0 min, control 0",0 µL
same,Hydrogen,"[5]; Sulfite as electron acceptor, 3 ppm, 6 min, control 7",7 µL
same,Hydrogen,"[5]; Sulfite as electron acceptor, 3 ppm, 16 min, control 26",25 µL
same,Hydrogen,"[5]; Sulfite as electron acceptor, 3 ppm, 26 min, control 45",43 µL
same,Hydrogen,"[5]; Sulfite as electron acceptor, 3 ppm, 59 min, control 139",141 µL
same,Hydrogen,"[5]; Sulfite as electron acceptor, 3 ppm, 71 min, control 179",183 µL
same,Hydrogen,"[5]; Thiosulfate as electron acceptor, +6 ppm, 0 min, control 0",0 µL
same,Hydrogen,"[5]; Thiosulfate as electron acceptor, +6 ppm, 11 min, control 38",33 µL
same,Hydrogen,"[5]; Thiosulfate as electron acceptor, +6 ppm, 21 min, control 90",73 µL
same,Hydrogen,"[5]; Thiosulfate as electron acceptor, +6 ppm, 31 min, control 144",118 µL
same,Hydrogen,"[5]; Thiosulfate as electron acceptor, +6 ppm, 41 min, control 204",176 µL
same,"Optical Density @ 660 nm, treated",D. salexigens,.06
same,Optical Density @ 660 nm,"[6]; 0 h of growth, before addition of 3 ppm at 19 h, control .02",.0
same,effect on growth (in words),[6]; 3 ppm,no effect on the growth of T. denitrificans
same,Optical Density @ 660 nm,"[6]; 12 h of growth, before addition of 3 ppm at 19 h, control .06",.06
same,Optical Density @ 660 nm,"[6]; 15 h of growth, before addition of 3 ppm at 19 h, control .08",.08
same,Optical Density @ 660 nm,"[6]; 19 h of growth, time of addition of 3 ppm, control .09",.09
same,Optical Density @ 660 nm,"[6]; 34 h of growth, 3 ppm added at 19 h, control .22",.22
same,Optical Density @ 660 nm,"[6]; 36 h of growth, 3 ppm added at 19 h, control .29",.25
same,Optical Density @ 660 nm,"[6]; 38 h of growth, 3 ppm added at 19 h, control .32",.27
same,Optical Density @ 660 nm,"[6]; 43 h of growth, 3 ppm added at 19 h, control .40",.32
same,Optical Density @ 660 nm,"[6]; 55 h of growth, 3 ppm added at 19 h, control 1.5",1.5
same,"Optical Density @ 660 nm, treated",D. multispirans,.28

# Source: patent US5385842A, “Anthraquinones as inhibitors of sulfide production from sulfate-reducing bacteria” (E. I. Du Pont de Nemours and Company, priority 1993, dated 1995)
